{
  "source": "paper PMC6695788",
  "about": "“Screening and Isolating Major Aldose Reductase Inhibitors from the Seeds of Evening Primrose (Oenothera biennis)” (Molecules, 2019)",
  "key": {"[1]": {"molecular_target": "T1, rat lens aldose reductase (RLAR) (Rattus norvegicus, UniProt P07943)", "T1 construct": "the supernatant that retained the RLAR was collected for further tests; from tissue; host or cells: eye lens of Sprague-Dawley rats", "experiment": "Rat lens aldose reductase (RLAR) inhibitory assay", "assay_type": "biochemical", "settings": "mean ± SD (n = 3); for inhibition at 10 µg/mL: sample concentration 10 μg/mL", "method": "To extract the RLAR, the eye lens removed from the rats were first homogenized with sodium phosphate buffer (0.1 M, pH 6.2). […] Finally, the supernatant that retained the RLAR was collected for further tests. […] The inhibitory activities of the samples can be calculated using Equation (1):(1) Inhibition (%)=(1−ΔAsample−ΔAblank/ΔAcontrol−ΔAblank)×100% where ΔAcontrol is the absorbance change in 3 min of the tested mixture without the sample; ΔAblank is the absorbance change in 3 min of the tested mixture without RLAR; and ΔAsample is the absorbance change in 3 min of the tested mixture. The IC50 values of the active samples were also calculated and listed, where IC50 indicates the concentration of the tested sample required to consume half of the NADPH."}, "[2]": {"molecular_target": "T2, human recombinant aldose reductase (Homo sapiens, UniProt P15121)", "T2 construct": "purchased Wako Pure Chemical Industries Ltd. (Osaka, Japan)", "experiment": "Affinity-based ultrafiltration-HPLC screening", "assay_type": "binding", "settings": "ESME incubated with AR 6.9 µM, 37 °C, 30 min, ultrafiltrate analysed", "method": "The ultrafiltrate was collected for further HPLC analysis.\nHPLC analysis was performed using an Agilent 1100 HPLC instrument (Agilent, Santa Clara, CA, USA) equipped with an Eclipse Plus C18 column (150 mm length, 4.6 mm i.d., and 5 µm particle size; Agilent, Santa Clara, CA, USA). The temperature of the column oven was set at 30 °C and the injection volumes of the samples were 10 µL."}},
  "note": "Read-outs that look alike come from different tables or passages of the source.",
  "data": [
    {"smiles": "Oc1cc(O)c2c(c1)O[C@H](c1ccc(O)c(O)c1)[C@@H](O)[C@@H]2c1c(O)cc(O)c2c1O[C@H](c1ccc(O)c(O)c1)[C@@H](O)C2", "note": "[Procyanidin B3 (2), procyanidin B3]", "values": [
      {"measurement": "inhibition at 10 µg/mL", "setting": "[1]; isolated compounds", "value": "44.6 ± 1.99", "unit": "%"},
      {"measurement": "HPLC peak area after incubation with human recombinant aldose reductase vs without", "setting": "[2]", "value": "decreased"}
    ]},
    {"smiles": "Oc1cc(O)c2c(c1)O[C@H](c1ccc(O)c(O)c1)[C@@H](O)C2", "note": "[Catechin (3), catechin]", "values": [
      {"measurement": "IC50", "setting": "[1]; isolated compounds, read-out: IC50", "value": "14.8 ± 3.17", "unit": "µM"},
      {"measurement": "inhibition at 10 µg/mL", "setting": "[1]; isolated compounds", "value": "69.6 ± 1.99", "unit": "%"},
      {"measurement": "HPLC peak area after incubation with human recombinant aldose reductase vs without", "setting": "[2]", "value": "decreased"}
    ]},
    {"smiles": "O=c1c(O)c(-c2ccc(O)c(O)c2)oc2cc(O)cc(O)c12", "note": "[Quercetin, quercetin, reference compound]", "values": [
      {"measurement": "inhibition at 10 µg/mL", "setting": "[1]; extracts and fractions", "value": "81.6 ± 3.81", "unit": "%"}
    ]},
    {"smiles": "COC(=O)c1cc(O)c(O)c(O)c1", "note": "[Methyl gallate (4), methyl gallate]", "values": [
      {"measurement": "inhibition at 10 µg/mL", "setting": "[1]; isolated compounds", "value": "32.2 ± 0.97", "unit": "%"},
      {"measurement": "HPLC peak area after incubation with human recombinant aldose reductase vs without", "setting": "[2]", "value": "decreased"}
    ]},
    {"smiles": "O=C(O)c1cc(O)c(O)c(O)c1", "note": "[Gallic acid (1), gallic acid]", "values": [
      {"measurement": "IC50", "setting": "[1]; IC50, isolated compounds", "value": "11.5 ± 1.82", "unit": "µM"},
      {"measurement": "inhibition at 10 µg/mL", "setting": "[1]; isolated compounds", "value": "80.2 ± 1.56", "unit": "%"},
      {"measurement": "HPLC peak area after incubation with human recombinant aldose reductase vs without", "setting": "[2]", "value": "decreased"}
    ]}
  ]
}
